According to ChEMBL document CHEMBL6103654, “Design, Biological Characterization, and Discovery of Capromorelin Derivatives as Oral Growth Hormone Secretagogue Receptor Type 1a Agonist for the Treatment of Growth Hormone Deficiency” (J Med Chem, 2025):

Experiments:
[1] = Agonist activity at human GHSR expressed in CHO cells incubated for 60 min by FLIPR assay; type: cell-based; conditions: 1 h
CHO = test: Agonist activity at human GHSR expressed in CHO cells at maximum concentration incubated for 60 min by FLIPR assay relative to control; type: cell-based; conditions: filed as agonist
[2] = Metabolic stability in dog liver microsome assessed as half life at 1 uM measured upto 60 mins in presence of NADPH by LC-MS/MS analysis; type: ADME, Canis lupus familiaris; conditions: liver microsomes
[3] = molecular target: Growth hormone secretagogue receptor type 1 (Rattus norvegicus) (UniProt O08725); test: Agonist activity at rat GHSR expressed in CHO cells at maximum concentration incubated for 60 min by FLIPR assay relative to control; type: functional, cell-based; conditions: filed as agonist
[4] = Clearance in male Sprague-Dawley rat plasma at 1 mg/kg, iv administered as single dose measured after 4 hrs; type: ADME, organism-based
Rattus norvegicus [5] = test: Induction of growth hormone level in Juvenile Sprague-Dawley rat blood at 0.1 mg/kg, po administered as single dose measured after 10 mins by ELISA method (reference value: 23.2+/-5.6 ng/mL); type: functional
Rattus norvegicus [6] = test: Induction of growth hormone level in Juvenile Sprague-Dawley rat blood at 0.1 mg/kg, po administered as single dose measured after 20 mins by ELISA method (reference value: 29.1+/-8.6 ng/mL); type: functional
Rattus norvegicus [7] = test: Induction of growth hormone level in Juvenile Sprague-Dawley rat blood at 0.1 mg/kg, po administered as single dose measured after 4 hrs by ELISA method (reference value: 32.5+/-4.5 ng/mL); type: functional
Rattus norvegicus [8] = test: Induction of growth hormone level in Juvenile Sprague-Dawley rat blood by measuring AUC(0 to 40 mins) at 0.2 mg/kg, po administered as single dose by ELISA method (reference value: 20.2+/-4.3 ng/mL); type: functional, organism-based
Rattus norvegicus [9] = test: Induction of growth hormone level in adult Sprague-Dawley rat blood at 0.1 mg/kg, po administered as single dose measured after 10 mins by ELISA method (reference value: 13.7+/-7.2 ng/mL); type: functional
Rattus norvegicus [10] = test: Induction of growth hormone level in adult Sprague-Dawley rat blood at 0.2 mg/kg, po administered as single dose measured after 40 mins by ELISA method (reference value: 14.4+/-6.9 ng/mL); type: functional
Rattus norvegicus [11] = test: Induction of growth hormone level in adult Sprague-Dawley rat blood at 0.5 mg/kg, po administered as single dose measured after 10 mins by ELISA method (reference value: 13.7+/-7.2 ng/mL); type: functional
[12] = AUC in male monkey at 2 mg/kg, po administered as single dose measured after 4 hrs; type: ADME, organism-based, Macaca mulatta; conditions: rhesus monkey, in vivo
[13] = Volume of distribution in male dog at 0.5 mg/kg, iv administered as single dose measured after 4 hrs; type: ADME, organism-based, Canis lupus familiaris; conditions: in vivo
[14] = Cmax in male dog at 2 mg/kg, po administered as single dose measured after 4 hrs; type: ADME, organism-based, Canis lupus familiaris; conditions: in vivo
[15] = AUC in male dog at 2 mg/kg, po administered as single dose measured after 4 hrs; type: ADME, organism-based, Canis lupus familiaris; conditions: in vivo
[16] = Half life in male mouse at 2 mg/kg, po administered as single dose measured after 4 hrs; type: ADME, organism-based; conditions: in vivo
[17] = Oral bioavailability in male mouse at 2 mg/kg administered as single dose measured after 4 hrs; type: ADME, organism-based; conditions: in vivo
[18] = Metabolic stability in monkey liver microsome assessed as intrinsic clearance at 1 uM measured upto 60 mins in presence of NADPH by LC-MS/MS analysis; type: ADME, Macaca mulatta; conditions: rhesus monkey, liver microsomes, read-out: CLH
[19] = Metabolic stability in monkey liver microsome assessed as hepatic clearance at 1 uM measured upto 60 mins in presence of NADPH by LC-MS/MS analysis; type: ADME, Macaca mulatta; conditions: rhesus monkey, liver microsomes, read-out: CLH
[20] = Metabolic stability in rat liver microsome assessed as half life at 1 uM measured upto 60 mins in presence of NADPH by LC-MS/MS analysis; type: ADME; conditions: liver microsomes
[21] = Metabolic stability in rat liver microsome assessed as hepatic clearance at 1 uM measured upto 60 mins in presence of NADPH by LC-MS/MS analysis; type: ADME; conditions: liver microsomes, read-out: CLH
[22] = Plasma protein binding in dog assessed as unbound fraction measured after 6 hrs by dialysis method; type: ADME, cell-free, Canis lupus familiaris
Cytochrome P450 3A4 = Cytochrome P450 3A4 (Homo sapiens, UniProt P08684); test: Inhibition of CYP3A4 in human liver microsome using testosterone as substrate incubated for 5 min in presence of NADPH by UPLC-MS/MS analysis; type: ADME, microsomes
Cytochrome P450 2C19 = Cytochrome P450 2C19 (Homo sapiens, UniProt P33261); test: Inhibition of CYP2C19 in human liver microsome incubated for 5 min in presence of NADPH by UPLC-MS/MS analysis; type: ADME, microsomes
Cytochrome P450 2D6 = Cytochrome P450 2D6 (Homo sapiens, UniProt P10635); test: Inhibition of CYP2D6 in human liver microsome incubated for 5 min in presence of NADPH by UPLC-MS/MS analysis; type: ADME, microsomes
Cytochrome P450 1A2 = molecular target: T1, Cytochrome P450 1A2 (Homo sapiens, UniProt P05177); test: Inhibition of CYP1A2 in human liver microsome incubated for 5 min in presence of NADPH by UPLC-MS/MS analysis; type: ADME, microsomes
T1 sequence (P05177 whole entry): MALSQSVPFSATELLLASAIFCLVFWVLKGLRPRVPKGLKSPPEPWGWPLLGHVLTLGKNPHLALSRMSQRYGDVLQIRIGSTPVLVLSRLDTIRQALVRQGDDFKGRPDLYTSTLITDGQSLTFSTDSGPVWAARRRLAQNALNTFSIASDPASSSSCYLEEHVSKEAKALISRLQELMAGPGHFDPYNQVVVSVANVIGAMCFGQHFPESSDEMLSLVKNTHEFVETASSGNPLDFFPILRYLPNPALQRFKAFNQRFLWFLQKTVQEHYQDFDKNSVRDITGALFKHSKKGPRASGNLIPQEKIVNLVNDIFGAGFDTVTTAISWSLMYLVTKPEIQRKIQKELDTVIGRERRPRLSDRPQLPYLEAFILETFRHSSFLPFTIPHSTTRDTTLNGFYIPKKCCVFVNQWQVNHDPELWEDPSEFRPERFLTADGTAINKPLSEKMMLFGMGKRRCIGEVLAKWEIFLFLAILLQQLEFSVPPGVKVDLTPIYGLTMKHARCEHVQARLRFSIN

[23] = Genotoxicity in Salmonella typhimurium TA98 by Ames test; type: toxicity; conditions: salmonella enterica subsp. enterica serovar typhimurium
[24] = Genotoxicity in Salmonella typhimurium TA100 by Ames test; type: toxicity; conditions: salmonella enterica subsp. enterica serovar typhimurium
[25] = Genotoxicity in Salmonella typhimurium TA1537 by Ames test; type: toxicity; conditions: salmonella enterica subsp. enterica serovar typhimurium
[26] = Toxicity in Sprague-Dawley rat assessed as effect on red pulp with a network of sinuses filled with erythrocytes at 10 to 100 mg/kg, po administered once daily for 14 days by H&E staining based analysis; type: organism-based; conditions: in vivo, 336 h, dose 10-100 mg/kg, time 14 day
[27] = Toxicity in Sprague-Dawley rat assessed as change in hepatic structure by measuring hepatic lobules at 10 to 100 mg/kg, po administered once daily for 14 days; type: organism-based; conditions: in vivo, 336 h, dose 10-100 mg/kg, time 14 day
[28] = Toxicity in Sprague-Dawley rat assessed as effect on hepatic cords at 10 to 100 mg/kg, po administered once daily for 14 days; type: organism-based; conditions: in vivo, 336 h, dose 10-100 mg/kg, time 14 day

Chain of Growth hormone secretagogue receptor type 1 (Rattus norvegicus) (O08725 whole entry): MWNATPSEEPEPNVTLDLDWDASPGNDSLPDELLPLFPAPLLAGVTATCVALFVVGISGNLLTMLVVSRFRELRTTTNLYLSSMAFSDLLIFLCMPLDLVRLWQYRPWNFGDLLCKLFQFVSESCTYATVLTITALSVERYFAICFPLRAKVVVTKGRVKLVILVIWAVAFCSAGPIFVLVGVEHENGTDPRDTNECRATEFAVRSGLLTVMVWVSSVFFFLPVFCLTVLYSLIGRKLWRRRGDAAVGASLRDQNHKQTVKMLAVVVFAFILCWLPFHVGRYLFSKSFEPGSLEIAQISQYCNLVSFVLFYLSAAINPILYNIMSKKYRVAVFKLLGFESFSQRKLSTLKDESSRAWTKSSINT
Chain of Cytochrome P450 2D6 (P10635 whole entry): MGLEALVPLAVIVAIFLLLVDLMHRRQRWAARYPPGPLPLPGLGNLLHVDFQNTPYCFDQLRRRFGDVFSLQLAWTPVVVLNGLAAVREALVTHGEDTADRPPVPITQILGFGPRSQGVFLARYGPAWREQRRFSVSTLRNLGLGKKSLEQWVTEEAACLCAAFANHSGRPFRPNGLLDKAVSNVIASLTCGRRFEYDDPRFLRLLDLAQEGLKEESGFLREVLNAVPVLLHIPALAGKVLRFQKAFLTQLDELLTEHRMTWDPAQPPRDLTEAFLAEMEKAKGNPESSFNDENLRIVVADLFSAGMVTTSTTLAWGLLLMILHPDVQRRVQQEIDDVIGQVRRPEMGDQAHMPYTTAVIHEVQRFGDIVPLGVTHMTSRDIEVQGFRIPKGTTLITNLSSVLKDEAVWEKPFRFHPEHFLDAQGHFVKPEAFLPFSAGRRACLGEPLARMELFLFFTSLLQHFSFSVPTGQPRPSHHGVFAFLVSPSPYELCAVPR
Chain of Cytochrome P450 3A4 (P08684 whole entry): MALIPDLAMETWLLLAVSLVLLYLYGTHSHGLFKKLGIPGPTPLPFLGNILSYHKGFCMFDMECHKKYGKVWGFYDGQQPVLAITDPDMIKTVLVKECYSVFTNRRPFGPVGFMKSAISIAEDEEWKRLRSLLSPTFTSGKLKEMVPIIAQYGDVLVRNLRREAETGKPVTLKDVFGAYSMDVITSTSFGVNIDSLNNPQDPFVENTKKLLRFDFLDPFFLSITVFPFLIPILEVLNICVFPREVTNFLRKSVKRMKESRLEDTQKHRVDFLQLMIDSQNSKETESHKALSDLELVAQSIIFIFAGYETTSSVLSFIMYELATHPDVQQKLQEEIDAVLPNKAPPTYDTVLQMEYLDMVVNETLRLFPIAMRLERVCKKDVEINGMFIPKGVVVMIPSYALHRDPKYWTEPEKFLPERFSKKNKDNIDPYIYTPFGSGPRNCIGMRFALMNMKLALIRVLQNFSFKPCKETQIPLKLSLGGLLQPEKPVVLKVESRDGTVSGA
Chain of Cytochrome P450 2C19 (P33261 whole entry): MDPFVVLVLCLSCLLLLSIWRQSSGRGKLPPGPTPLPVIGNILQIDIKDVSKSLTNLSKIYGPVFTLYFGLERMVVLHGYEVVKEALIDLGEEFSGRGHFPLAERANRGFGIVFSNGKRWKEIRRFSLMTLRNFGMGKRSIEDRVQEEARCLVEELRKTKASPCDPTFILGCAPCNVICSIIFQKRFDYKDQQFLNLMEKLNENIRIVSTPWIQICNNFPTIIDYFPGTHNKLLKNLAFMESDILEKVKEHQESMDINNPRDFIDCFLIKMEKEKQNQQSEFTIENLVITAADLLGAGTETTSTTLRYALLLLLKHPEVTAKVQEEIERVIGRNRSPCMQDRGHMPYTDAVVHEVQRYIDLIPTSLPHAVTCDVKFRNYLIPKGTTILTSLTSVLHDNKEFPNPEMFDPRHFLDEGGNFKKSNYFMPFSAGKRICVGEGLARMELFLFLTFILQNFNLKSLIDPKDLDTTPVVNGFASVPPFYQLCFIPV

CC(C)(N)C(=O)N[C@H](COCc1ccccc1)C(=O)N1CCC2=NN(C3CC3)C(=O)[C@]2(Cc2ccccc2)C1 gave an EC50 [1] of 0.00055 µM, an Activity (CHO) of 152% and a half-life at 1 µM [2] of 10.3 min. It also gave an Activity [3] of 96.7%, a clearance [4] of 28.9 mL/min/kg and an Activity (Rattus norvegicus [5]) of 168.5 ng/mL. The Activity (Rattus norvegicus [6]) was 263.6 ng/mL, the Activity (Rattus norvegicus [7]) was 41.4 ng/mL and the AUC (Rattus norvegicus [8]) was 102 ng·h/mL. It also gave an Activity (Rattus norvegicus [9]) of 216.1 ng/mL, an Activity (Rattus norvegicus [10]) of 26 ng/mL and an Activity (Rattus norvegicus [11]) of 238.6 ng/mL. It also gave an AUC [12] of 75.13 ng·h/mL, a Vd [13] of 2.88 L/kg and a Cmax [14] of 200 ng/mL. It also gave an AUC at 4 h [15] of 406 ng·h/mL, a half-life [16] of 91.2 min and a bioavailability [17] of 33.9%. It also gave a microsomal CLint at 1 µM [18] of 451 µL/min/mg, a CLint scaled at 1 µM [19] of 541 mL/min/kg and a half-life at 1 µM [20] of 9.9 min. The CLint scaled at 1 µM [21] was 342 mL/min/kg, the fraction unbound at 6 h [22] was 0.563 and the IC50 (Cytochrome P450 3A4) was over 30 µM. For the same compound, the IC50 (Cytochrome P450 2C19) was over 30 µM, the IC50 (Cytochrome P450 2D6) was over 30 µM and the IC50 (Cytochrome P450 1A2) was over 30 µM. For the same compound, the Activity [23] was “Non-toxic”, the Activity [24] was “Non-toxic” and the Activity [25] was “Non-toxic”. The Activity [26] was “Non-toxic”, the Activity [27] was “Non-toxic” and the Activity [28] was “Non-toxic”.
